Measurements published in patent publication US9868705B2, “Tetra-aryl cyclobutane inhibitors of androgen receptor action for the treatment of hormone refractory cancer” (The Board of Trustees of the University of Illinois, priority 2013, dated 2018).
Residue numbers refer to the chain shown, from its start.

What was measured:
[1] = system: wild type androgen receptor; assay: FKBP51 endogenous gene expression in LNCaP-AR cells (wild type AR overexpressed); assay type: cell-based, human; conditions: at 20 M (so in the source)
Source text: FIG. 44 depicts data for dose-dependent inhibition of androgen receptor-dependent endogenous gene expression of FKBP51 by Compound 1 of Example IV in LNCaP cells producing exclusively T877A mutant androgen receptor (LNCaP-XIP) and LNCaP cells transfected with wild type androgen receptor (LNCaP-androgen receptor, ratio of wild type to T877A receptor is ca. 3:1).
To more fully characterize the selectivity of compound 1 for the mutant receptor, we measured its inhibitory potential against the WT and T877A mutant receptor in an AR-dependent luciferase transcription assay in CV-1 cells (FIGS. 43A and B).

W741C AR = target: T1, W741C AR (Homo sapiens, UniProt P10275, W742C); assay: MMTV-luciferase transcription assay in CV-1 cells, W741C AR
T1 sequence (P10275 1-920 W742C): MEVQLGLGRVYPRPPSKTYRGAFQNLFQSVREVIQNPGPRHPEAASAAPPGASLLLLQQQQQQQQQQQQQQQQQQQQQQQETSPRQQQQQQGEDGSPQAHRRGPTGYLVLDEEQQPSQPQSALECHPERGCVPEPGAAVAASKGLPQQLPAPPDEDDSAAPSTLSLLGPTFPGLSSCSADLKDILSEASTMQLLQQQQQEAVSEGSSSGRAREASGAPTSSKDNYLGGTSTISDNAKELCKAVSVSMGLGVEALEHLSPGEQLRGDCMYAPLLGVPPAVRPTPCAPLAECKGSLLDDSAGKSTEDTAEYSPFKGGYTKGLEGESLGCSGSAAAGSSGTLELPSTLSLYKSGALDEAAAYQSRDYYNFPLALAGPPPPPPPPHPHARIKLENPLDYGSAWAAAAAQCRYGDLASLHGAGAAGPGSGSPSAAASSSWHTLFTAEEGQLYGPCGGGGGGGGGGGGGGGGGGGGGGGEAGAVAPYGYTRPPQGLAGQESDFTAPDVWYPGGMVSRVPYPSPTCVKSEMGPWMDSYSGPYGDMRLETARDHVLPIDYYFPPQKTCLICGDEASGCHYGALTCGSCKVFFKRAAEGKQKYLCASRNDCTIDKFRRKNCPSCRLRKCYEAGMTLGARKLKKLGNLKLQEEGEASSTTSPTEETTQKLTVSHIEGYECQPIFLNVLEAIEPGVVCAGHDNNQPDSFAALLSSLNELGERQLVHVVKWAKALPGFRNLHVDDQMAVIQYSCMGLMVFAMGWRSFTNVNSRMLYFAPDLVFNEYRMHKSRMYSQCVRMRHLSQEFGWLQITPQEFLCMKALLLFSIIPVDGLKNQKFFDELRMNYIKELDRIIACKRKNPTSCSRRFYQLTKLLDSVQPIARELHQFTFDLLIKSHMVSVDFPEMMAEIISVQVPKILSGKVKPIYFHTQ

VCaP cells = assay: VCaP cell proliferation; assay type: cell-based
AR = target: T2, AR (Homo sapiens, UniProt P10275); assay: Western blot analysis of AR degradation; assay type: cell-based
T2 sequence (P10275 1-920): T1 sequence (P10275 1-920 W742C) with C742W

AR NTD/LBD interaction = target: T3, AR NTD/LBD interaction (Homo sapiens, UniProt P10275); assay: AR NTD/LBD interaction reporter assay in CV-1 cells; assay type: cell-based
T3 construct: expressed in transfected cells; host or cells: CV-1
T3 sequence (P10275 1-920): T1 sequence (P10275 1-920 W742C) with C742W
Source text: (§1) Accordingly, we analyzed the disruption of AR/DNA binding using a luciferase reporter gene assay transfected with an AR-VP16 construct that is constitutively active upon DNA binding, regardless of the ability of AR to recruit transcriptional machinery (FIG. 40A). Simultaneously, we examined CV-1 cells transfected with an AR construct that is only transcriptionally active when there is a positive interaction between the NTD and C-terminal LBD ([…]) (FIG. 40B).

AR-VP16 construct = assay: MMTV-luciferase reporter gene assay with AR-VP16 construct (AR/DNA binding); assay type: cell-based
Source text: as §1

IC50 (W741C AR): 2360 nM
inhibition of the NTD/LBD interaction (AR NTD/LBD interaction): inhibitory activity
inhibition of AR/DNA binding (AR-VP16 construct): inhibitory activity
Compound: COc1cc([C@H]2[C@H](c3ccccc3)[C@H](c3cc(OC)nc(OC)n3)[C@H]2c2ccccc2)nc(OC)n1 [CB-22]
inhibition of FKBP51 gene expression [1]: approximately 50%
inhibition of VCaP cell proliferation (VCaP cells): slow cell-growth in a dose-dependent manner
rate of receptor proteolysis (AR): does not influence the rate of receptor proteolysis
